Results taken from patent US20070238098A1, “Method and Kit for Predicting Adverse Side Effects of Paclitaxel Therapy” (priority 2003, published 2007).

Test system: breast cancer patients
Test: clinical study of paclitaxel preoperative chemotherapy: adverse side effects graded by NCI-CTC
Assay type: in vivo, human
Conditions: 54 breast cancer patients, stage II or IIIa; 80 mg/m paclitaxel by intravenous infusion over 1 hour, once a week for 12 weeks
Protocol: 54 breast cancer patients were registered in a clinical study of paclitaxel preoperative chemotherapy. The following summarizes the criteria for patient selection. 1) Breast cancer patients age 70 or younger in stage II or IIIa as indicated by histopathological testing; and, 2) suitable physiological function (WBC >4,000 mm^3, platelet count […], hemoglobin level >10 g/dl, serum creatinine concentration <1.2 mg/dl, serum total bilirubin level <1.5 mg/dl, GOT/GPT <60/70). Patients who received proceeding chemotherapy or radiation therapy were excluded. Namely, all 54 patients who participated in this clinical study of paclitaxel preoperative chemotherapy were nearly at the same stage either clinically or histologically, and had no prior history of chemotherapy. […]
White blood cell count, red blood cell count, hemoglobin level and platelet count were measured weekly for each patient to evaluate the presence or absence of adverse side effects. Adverse side effects observed during the course of therapy were evaluated and graded based on the Common Toxicity Criteria of the US National Cancer Institute (NCI-CTC) (see Trotti, A., et al., Common toxicity criteria: version 2.0—an improved reference for grading the acute effects of cancer treatment: impact on radiotherapy, Int. J. Radiat. Oncol. Biol. Phys., 47: 13-47, 2000). […]

## CC(=O)O[C@H]1C(=O)[C@@]2(C)[C@H]([C@H](OC(=O)c3ccccc3)[C@]3(O)C[C@H](OC(=O)[C@H](O)[C@@H](NC(=O)c4ccccc4)c4ccccc4)C(C)=C1C3(C)C)[C@]1(OC(C)=O)CO[C@@H]1C[C@@H]2O [paclitaxel]
  granulocytopenia observed (most frequently observed adverse side effect; NCI-CTC grade 1 to 4): 24 patients
